{
  "source": "patent US11717536B2",
  "about": "“Treatment for periodontitis” (THE UNIVERSITY OF MELBOURNE, priority 2017, dated 2023)",
  "key": {"Leptotrichia wadei": {"test_system": "Leptotrichia wadei", "assay": "Clinical trial: plaque microbial analysis, Leptotrichia wadei", "format": "in vivo", "details": "18.8 mg CPP-ACP sugar-free gum, 20 min six times per day, 14 days, vs no gum chewing; supragingival plaque", "description": "(§1) Following the completion of the examination and supragingival plaque collection, participants received a supragingival scaling, clean and prophylaxis of all their teeth. At the completion of the last examination for leg 3, each participant received a professional fluoride treatment.\n(§2) Participants had all supragingival plaque collected from the buccal surfaces of their maxillary molars (teeth 17, 16, 26 & 27) with a sterile scaling instrument. The plaque samples from each tooth were placed in separate sterile tubes, to give four samples per participant.\n(§3) Genomic DNA was extracted from the plaque using a combination of mechanical disruption of the cells via a Precellys homogeniser and the chemical extraction and purification of the genomic DNA via the PowerLyzer PowerSoil DNA Isolation Kit (MoBio). Quantitation of the extracted DNA was achieved using a Qubit dsDNA High Sensitivity Assay kit (ThermoFisher), before 5 ng DNA was used as template in a PCR reaction that amplified the V4 variable region of the 16S ribosomal RNA gene and individually barcoded the PCR product from each sample. The barcoded DNA was then sequenced using an Ion Torrent Personal Genome machine and Torrent Suite™ Software (ThermoFisher).\n(§4) Analysis of the resulting sequence of the 16S ribosomal RNA gene enabled identification of the bacterial population present in each sample, down to the species level. […]"}, "Leptothrichia shahii": {"test_system": "Leptothrichia shahii", "assay": "Clinical trial: plaque microbial analysis, Leptothrichia shahii", "format": "in vivo", "details": "18.8 mg CPP-ACP sugar-free gum, 20 min six times per day, 14 days, vs no gum chewing; supragingival plaque", "description": "as §1, §2, §3, §4"}, "Lautropia mirabilis": {"test_system": "Lautropia mirabilis", "assay": "Clinical trial: plaque microbial analysis, Lautropia mirabilis", "format": "in vivo", "details": "18.8 mg CPP-ACP sugar-free gum, 20 min six times per day, 14 days, vs no gum chewing; supragingival plaque", "description": "as §1, §2, §3, §4"}, "[1]": {"test_system": "Fusobacterium nucleatum (ATCC 10953)", "assay": "Six species polymicrobial biofilm in constant-depth film fermenter, species composition: F. nucleatum", "format": "cell-based", "description": "To model supragingival plaque six representative oral bacterial species, Streptococcus sanguinis (NCTC 7863), Streptococcus mutans Ingbritt, Actinomyces naeslundii (NCTC 10301), Veillonella parvula (ATCC 17745), Lactobacillus casei (NCDO 161) and Fusobacterium nucleatum (ATCC 10953) (Table 5) were cultured as a polymicrobial biofilm on a human enamel substratum in a constant-depth film fermenter (CDFF; Cardiff University, UK). The CDFF was housed in a 37° C. incubator under anaerobic conditions which were maintained by a constant flow of 5% CO2 in N2 at 1 L/h. The CDFF contained 15 removable polytetrafluoroethylene (PTFE) pans on a circular platform that was rotated at a constant speed of three rpm. The biofilms were grown on three enamel blocks (see below) in each PTFE pan using an artificial saliva medium (ASM, 2.5 g/L mucin type II (porcine, gastric, Sigma), 2.0 g/L bacteriological peptone (Oxoid), 2.0 g/L tryptone (Oxoid), 1.0 g/L yeast extract (Oxoid), 0.35 g/L NaCl, 0.2 g/L KCl, 0.2 mg/L vitamin K, 1 mg/L haemin and 0.1 g/L cysteine hydrochloride) at a constant flow rate of 30 mL/h. Prior to inoculation, the CDFF pan surfaces were conditioned for 24 h with ASM at a flow rate of 10 mL/h (McBain et al (2003) J Appl Microbiol. 94(4):655-66). In order to mimic in vivo bacterial growth conditions in the oral cavity with dietary sugar intake and to provide a high cariogenic challenge, a 1% (w/v) sucrose solution in ASM was pumped into the CDFF four times a day at four hourly intervals with a flow rate of 30 mL/h for 10 min.\nThree treatments were applied to the polymicrobial biofilms: 290 ppm fluoride with 220 ppm fluoride as SnF2 and 70 ppm fluoride as NaF (referred to as SnF2), 2% CPP-ACP and 2% CPP-ACP-SnF2. These treatments were compared with the control in which the test solution was replaced with ASM. Each treatment was applied using two 10 min pulses of the test solution in ASM with a flow rate of 30 mL/h. The first pulse started 30 min prior to the first sucrose pulse of the morning and the second started 3 h 30 min after the final sucrose pulse of the day.\nOn day 6, 12 and 19 after inoculation four pans were removed aseptically from the CDFF and replaced with blank sterile pans. Enamel blocks from the pans were removed for bacterial enumeration and transverse microradiography.\nPlanktonic and loosely attached bacterial cells were firstly removed from the enamel blocks by light washing with 100 μL ASM. To harvest the biofilm cells on each block, the surface was scraped with a sterile scraper with 1 mL of ASM. The biofilm bacterial cells were sedimented by centrifugation (10,000 g, 10 min), the supernatant carefully decanted and the cell pellets stored at −80° C. until required for DNA extraction. The enamel blocks were then used for sectioning and microradiography.\nFor each timepoint, DNA was extracted separately from 8-9 enamel blocks using PowerLyzer® PowerSoil® DNA Isolation Kits (MoBio Laboratories) following the manufacturers “Vacuum Protocol” with a Precellys® bead homogeniser (Bertin Technologies). Samples were quantified using a Qubit™ dsDNA HS assay kit (Life Technologies) before being stored at −80° C.\nThe Ion Amplicon Library Preparation Fusion Method (Thermo Fisher Scientific), was adapted for amplification of the V4 region of the 16S rRNA gene. […]"}},
  "note": "“Also recorded” adds a separate entry of the source.",
  "data": [
    {"substance": "Casein phosphopeptide-amorphous calcium phosphate [CPP-ACP]", "values": [
      {"measurement": "% decrease in relative abundance, Leptotrichia wadei", "setting": "Leptotrichia wadei", "result": "91% (p < 0.001)"},
      {"measurement": "% decrease in relative abundance, Leptothrichia shahii", "setting": "Leptothrichia shahii", "result": "73% (p < 0.01)"},
      {"measurement": "% decrease in relative abundance, Lautropia mirabilis", "setting": "Lautropia mirabilis", "result": "70% (p < 0.05)"},
      {"measurement": "F. nucleatum as a percentage of total bacteria in the biofilm", "setting": "[1]; 19 days, mean ± standard deviation, n = 5-21", "result": "2.43 ± 1.21^ace %"},
      {"measurement": "change in abundance of F. nucleatum after treatment relative to the control (increase)", "setting": "[1]; day 19, FIG. 5B", "result": 355, "unit": "%"},
      {"measurement": "change in abundance of F. nucleatum relative to the control (in words)", "setting": "[1]; twice daily treatment, day 19", "result": "significantly increased; also recorded: reproducible increases"}
    ]}
  ]
}
